Experimental findings from patent publication US20230168255A1, “UNBLENDING OF TRANSCRIPTIONAL CONDENSATES IN HUMAN REPEAT EXPANSION DISEASE” (Max-Planck-Gesellschaft zur Förderung der Wissenschaften …, priority 2020, published 2023) are described below.

Assay [1] deals with Hoxd13 puncta in limb bud cells. Briefly: 1,6-hexanediol treatment of limb bud cells, Hoxd13 immunofluorescence. Type of assay: cell-based, mouse. The following applies: 6% for 1 min; limb bud cells expressing +7A Hoxd13 (spdh) versus wt. The procedure:
1,6-hexanediol treatment: Isolated limb bud cells attached to fibronectin coated glass coverslips were treated with 6% or 0% hexanediol (Sigma, 240117) in 1 mL cell culture media for 1 minute at 37° C. After treatment, cells were washed with 1 mL of PBS, and immediately fixed in 4% paraformaldehyde in PBS for 10 min. Fixed cells were washed and then stored at 4° C. until processing for immunofluorescence and microscopy.
Isolated limb bud cells, Kelly cells, and SH-SY5Y cells attached to coated glass coverslips were fixed in 4% paraformaldehyde (PFA) (Sigma-Aldrich, P6148) in PBS for 10 min and stored at 4° C. in PBS or processed immediately. Cells were permeabilized in 0.1% Triton X-100 (Thermo Scientific, 85111) in PBS for 10 min at RT. […]
Hoxd13 puncta detected in fixed cell immunofluorescence (FIG. 4C-D) were analyzed using a similar workflow described above. Nuclear regions were automatically detected in the Zen Blue (Zeiss) software package using the DAPI counterstain signal. Puncta were segmented on morphology, and then filtered based on fluorescence intensity and circularity. […] Values for nuclear area, Hoxd13 puncta area, Hoxd13 puncta mean fluorescence intensity, and Hoxd13 puncta count were measured for 120 wild type cells, 143 1-6 HD treated wild type cells, 63 spdh cells, and 62 1-6 HD treated spdh cells.

Assay [2] deals with T1, Hoxd13 +7A IDR-Med1 IDR co-condensates (Homo sapiens, UniProt P35453, DUP65-71).
T1 construct: His tag (from pET45b(+); purified on a His column); made in house; host or cells: E. coli BL21(DE3)
T1 sequence (P35453 with tags, fused parts or gaps DUP65-71): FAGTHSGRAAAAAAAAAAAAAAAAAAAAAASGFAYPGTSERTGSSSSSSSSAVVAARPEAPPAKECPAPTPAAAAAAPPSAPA
Briefly: in vitro droplet assay, compound treatment of Hoxd13 IDR-Med1 IDR co-condensates. Type of assay: biochemical. As to conditions: purified Hoxd13 +7A IDR-mCherry mixed with MED1 IDR-GFP; FIG. 3G-J, FIG. 8. The protocol: (§1) For image analysis, droplets were first automatically thresholded in either the mEGFP or mCherry channel using Zen Blue (Version 3.0), and then filtered by size, pixel intensity, and pixel deviation. Mean fluorescence intensities, area, and diameter of these primary regions were measured on both channels. For quantification and data visualization (FIG. 1J, 2H, 3B-E, 3H-J, 6F, 6H, 60, 6Q), raw values for diameter, mean intensity, or area were plotted as indicated in figure legends using R-Studio and the Directlabels package.
(§2) For in vitro droplet formation, recombinant mCherry or mEGFP fusion proteins were measured for concentration, and then diluted or mixed to suitable final concentrations in storage buffer. For microscopy, these solutions were further diluted 1:2 in either 20% or 10% PEG-8000 in deionized water (w/v). 10 μL of this suspension was pipetted onto chambered coverslips, and immediately imaged using a LSM880 confocal microscope equipped with a 63×1.40 oil DIC objective and AiryScan detector. All images were acquired from within the solution interface, and performed before droplets settled onto the bottom of the coverslip, as described in (Sabari et al., 2018). For droplet assays using preformed GFP-Med1 condensates (FIG. 3E-F), GFPMed1 droplets were allowed to form for 30 minutes at room temperature in the presence of 10% PEG-8000, before proceeding with co-condensation assays. For compound treatments of cocondensates (FIG. 3G-J), small molecules [ATP (Jena Bioscience, NU-1010), Mitoxantrone dihydrochloride (Sigma M6545), (±)-α-lipoic acid (Sigma 62320), and lipoamide, (Medchemexpress HY-B1142)] were directly diluted into droplet mixtures with or without vehicle (DMSO, Sigma D2650) to the desired final concentrations.

Assay [3] relates to Hoxd13 +7A IDR-Med1 IDR co-condensates. The assay is described as above. Format: biochemical. The following applies: summary statement; TFs containing disease-mutations. The protocol:
as §1, §2

With `OCCCCCCO` [1,6-HD, 1,6-hexanediol], in assay [1], the “sensitivity of Hoxd13 puncta to 1,6-HD” value is reported as “considerably reduced sensitivity”.

Turning to `O=C(O)CCCCC1CCSS1` (racemic) [lipoic acid, (±)-α-lipoic acid], the “reblending of co-condensates (ratio of GFP and mCherry fluorescence in HOXD13 IDR-mCherry containing droplets)” value in assay [2] was “failed to reblend”.

With adenosine tri-phosphate [ATP], the “reblending of co-condensates (ratio of GFP and mCherry fluorescence in HOXD13 IDR-mCherry containing droplets)” value in assay [2] was “reblended Hoxd13 +7A IDR-Med1 IDR co-condensates in a dose dependent manner”. The “composition of heterotypic condensates formed by Cluster 1 TFs with transcriptional co-activators (co-activator and TF content)” value in assay [3] is “revert the compositional alteration”.

In the case of `NC(=O)CCCCC1CCSS1` (stereo not shown) [lipoamide], in assay [2], the “reblending of co-condensates (ratio of GFP and mCherry fluorescence in HOXD13 IDR-mCherry containing droplets)” value is given as “failed to reblend”.

As to `Nc1ncnc2c1ncn2[C@@H]1O[C@H](COP(=O)(O)OP(=O)(O)NP(=O)(O)O)[C@@H](O)[C@H]1O` [APPNP, adenosine-5′-[(β,γ)-imido]triphosphate], the “reblending of co-condensates (ratio of GFP and mCherry fluorescence in HOXD13 IDR-mCherry containing droplets)” value in assay [2] is listed as “capable of reblending”. The “composition of heterotypic condensates formed by Cluster 1 TFs with transcriptional co-activators (co-activator and TF content)” value in assay [3] is given as “effective”.
